From patent US20200347136A1, “CONSTRAINED CYCLIC PEPTIDES AS INHIBITORS OF THE CD2:CD58 PROTEIN-PROTEIN INTERACTION FOR TREATMENT OF DISEASES AND AUTOIMMUNE DISORDERS” (Board of Supervisors for the University of Louisiana System, priority 2019, published 2020)
Numbered stars: 1 amine (or outer) side, 2 acyl side, 3 side chain; on linkers, the order of the positions; unused ones are H or OH. Bridge positions count the residues as written; N and C are the ends. Square brackets hold non-standard residues; d marks the D form. Peptide text beside a SMILES is read from it. βAla(3R-(1-naphthyl)) = O=C(C[C@@H](N[*:1])c1cccc2ccccc12)[*:2]; βAla(3S-(1-naphthyl)) = O=C(C[C@H](N[*:1])c1cccc2ccccc12)[*:2]; X1 = O=C(CCc1cccc2c1oc1c(CCN[*:1])cccc12)[*:2]

Tests used:
[1] = test system: MCF-7 cells; conditions: read-out: IC50 MCF-7 (HER2−); antiproliferative activity
Description: (§1) Antiproliferative activity of grafted cyclic peptides. Antiproliferative activity of the designed grafted peptides was evaluated in different HER2-overexpressing cancer cell lines as well as HER2 negative cancer cell lines.
(§2) Table 1. […] Single letter amino acid code was used for peptide sequence. Lower case letters refer to D amino acids and capital letters refer to L amino acids. Chirality of Anapa was indicated with R and S configuration in italics. Antiproliferative activity of peptides in cancer cell lines are given as IC50 in μM. Disulfide bonds between the cysteines are underlined.

[2] = test system: BT-474 cells; conditions: for IC50: read-out: IC50 BT-474 (HER2+), antiproliferative activity
Description: as §1, §2

[3] = test system: A549 cells; conditions: read-out: IC50 A549 (HER2+); antiproliferative activity
Description: as §1, §2

[4] = test system: Calu-3 cells; conditions: read-out: IC50 Calu-3 (HER2+); antiproliferative activity
Description: as §1, §2

[5] = test system: collagen-induced arthritis; conditions: cited from earlier work
[6] = test system: CD2:CD58 interaction (SRBC expressing CD58 / Jurkat cells expressing CD2); assay: E-rosetting assay, sheep red blood cells / Jurkat T cells; format: cell-based
Description: Peptides were added to AET-treated sheep red blood cells (SRBC) (expressing CD58 protein) first, and Jurkat cells (expressing CD2 protein) labeled with BCECF were added later. Cells with five or more SRBC bound were counted as rosettes. Values are percent inhibition of peptide-treated cells and are expressed as the mean of three experimental values. Error bars represent standard error of the mean (SEM).
The ability of peptides to inhibit cell adhesion was evaluated using E-rosetting assay via interaction between sheep red blood cells (SRBC) expressing CD58 and Jurkat T cells expressing CD2 protein. When these cells are incubated, they adhere to each other. Each Jurkat cell adheres to many sheep red blood cells. Five or more SRBC adhering to a Jurkat cell is counted as positive E-rosetting.

[7] = target: T1, CD2:CD58 interaction (Jurkat T cells / HFLS-RA cells) (Homo sapiens, UniProt P19256); assay: cell adhesion inhibition, Jurkat / HFLS-RA cells; format: cell-based
T1 construct: we used HFLS-RA cells derived from RA patients; endogenous in cells; host or cells: HFLS-RA (CD58) and Jurkat (CD2)
T1 sequence (P19256 29-250): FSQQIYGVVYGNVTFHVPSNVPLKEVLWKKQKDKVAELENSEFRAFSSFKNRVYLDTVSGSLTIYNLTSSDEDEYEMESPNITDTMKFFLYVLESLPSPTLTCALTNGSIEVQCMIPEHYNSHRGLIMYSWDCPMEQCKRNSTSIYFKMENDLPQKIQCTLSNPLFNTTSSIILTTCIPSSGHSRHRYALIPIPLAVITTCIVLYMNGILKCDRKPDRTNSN
Description: (§7) The ability of peptides to inhibit the CD2:CD58 protein-protein interaction was studied by evaluating the adhesion interaction between cells using model systems. […] The model systems we used included Jurkat and ovarian cancer (OVACR-3) cells and Jurkat and human fibroblast-like synoviocyte-rheumatoid arthritis (HFLS-RA) cells. Since OVCAR-3 cells and HFLS-RA cells express CD58, adhesion interactions between CD2 and CD58 can be studied using these model systems. Peptides were incubated with adherent cells that expressed CD58, and Jurkat cells were added to evaluate the adhesion. […] A broad range of concentrations (0.0005 to 200 μM) was used in the first screen and based on the inhibitory activity of the peptides in that concentration range, data points for a dose-response study were chosen. The concentration-response curves for the various peptides were obtained in the range of 0.0005 to 10 μM.
(§8) Cell adhesion was also evaluated in a well-established E-rosetting assay. […] To evaluate the cell adhesion inhibitory activity of peptides from cells associated with autoimmune disease, we used HFLS-RA cells derived from RA patients.

[8] = target: T2, CD2:CD58 interaction (Jurkat T cells / OVCAR-3 cells) (Homo sapiens, UniProt P19256); assay: cell adhesion inhibition, Jurkat / OVCAR-3 cells; format: cell-based
T2 construct: CD2+ Jurkat T cells and CD58+ OVCAR-3 cells; endogenous in cells; host or cells: OVCAR-3 (CD58) and Jurkat (CD2)
T2 sequence (P19256 29-250): T1 sequence (P19256 29-250)
Description: as §7, §8

[9] = target: T3, CD2:CD58 interaction (Homo sapiens, UniProt P19256); assay: cell adhesion inhibition between T cells (CD2) and epithelial cells (CD58), model systems; format: cell-based
T3 construct: Peptides were incubated with adherent cells that expressed CD58; endogenous in cells; host or cells: Jurkat T cells with OVCAR-3 or HFLS-RA cells
T3 sequence (P19256 29-250): T1 sequence (P19256 29-250)
Description: as §7

[10] = test system: CD2:CD58; assay: Cell adhesion inhibition IC50 (µM) | T cell-HFLS-RA
Description: (§3) Table printed on a drawing sheet, Fig. 5
Head of the field: Cell adhesion inhibition IC50 (µM) | T cell-HFLS-RA
(§4) Table of stable peptides designed based on sunflower trypsin inhibitor (SFTI) and their cell adhesion inhibition activities in a model system. OVCAR-3 and HFLS-RA cells express CD58. Jurkat T cells express CD2 protein. Inhibition of adhesion between Jurkat and OVCAR-3/HFLS-RA cells was evaluated. Cell adhesion inhibition is represented as IC50 value
(§5) First copying reader's note: In the SFTI sequences the stretch from the first C to the second C is underlined on the sheet; the ± error stands inside the IC50 cells.
(§6) Where the first naming reader finds the target: description_of_the_figure: OVCAR-3 and HFLS-RA cells express CD58. Jurkat T cells express CD2 protein. Inhibition of adhesion between Jurkat and OVCAR-3/HFLS-RA cells was evaluated.

[11] = test system: CD2:CD58; assay: Cell adhesion inhibition IC50 (µM) | T cell-OVCAR-3
Description: as §3
Head of the field: Cell adhesion inhibition IC50 (µM) | T cell-OVCAR-3
as §4, §5, §6

[12] = test system: Calu-3 xenograft tumors; assay: Calu-3 xenograft model of lung cancer in nude mice; format: in vivo; conditions: Calu-3 xenograft; SFTI-G5 8 mg/kg intratumoral thrice a week; antibodies 12 then 6 mg/kg once a week
Description: 5×10^6 Calu-3 cells suspended in serum-free medium were subcutaneously inoculated in left flank region of mice to induce lung cancer (Foxn1-nude). Peptide (8 mg/kg) was administered via intratumoral injection three times a week after 10 days, Pertuzumab was injected with a loading dose of 12 mg/kg and then 6 mg/kg as maintenance dose intraperitonially once a week, Trastuzumab and pertuzumab combination was injected at a loading dose of 12 mg/kg and then 6 mg/kg as maintenance dose once a week. […] For comparison, pertuzumab (up triangle, blue) and trastuzumab and pertuzumab combination (down triangle, red) also shown (with standard errors for n=6). […] C) PPI inhibition assessed by PLA on tumor tissue sample. […] Tumor sections were homogenized, and protein was extracted and subjected to Western blot. […] (** p<0.01). Mean±SEM.
HER2 dimerization inhibitors such as pertuzumab and trastuzumab and pertuzumab combinations were also administered as control groups (FIG. 11A). […] During the course of the experiment, the tumor size in the control xenograft group without any treatment continued to increase, reaching a diameter of ˜9 mm in 28 days (FIG. 11B).
To evaluate the phosphorylation of HER2 protein, Western blot analysis was performed on frozen tumor samples.

Compound: N=C(N)NCCC[C@@H]1NC(=O)[C@H]2CCCN2C(=O)[C@@H]2CCCN2C(=O)[C@H](CCCNC(=N)N)NC(=O)C[C@H](c2cccc3ccccc23)NC(=O)[C@H](Cc2ccccc2)NC(=O)[C@H](CC(=O)O)NC(=O)[C@H](CC(=O)O)NC(=O)[C@H](Cc2ccccc2)NC(=O)C[C@H](c2cccc3ccccc23)NC1=O [Compound 18, Cyclo(PpR(R-X)FDDF(R-X)R), reference compound] (cyclo(P[dP]R[βAla(3R-(1-naphthyl))]FDDF[βAla(3R-(1-naphthyl))]R))
- IC50 [1]: > 50 µM

Compound: CC[C@H](C)[C@@H]1NC(=O)[C@H](C)NC(=O)C[C@@H](c2cccc3ccccc23)NC(=O)[C@@H]2CSSC[C@H](NC(=O)C[C@@H](c3cccc4ccccc34)NC(=O)[C@H](C)NC(=O)[C@@H]3CCCN3C(=O)[C@@H]3CCCN3C1=O)C(=O)N[C@@H](C)C(=O)N1CCC[C@H]1C(=O)N[C@@H](CC(=O)O)C(=O)N[C@@H](C)C(=O)N[C@@H](Cc1ccccc1)C(=O)N2 [Control-G, Cyclo(C(S-X)AIPPA(S-X)CAPDAF), reference compound] (cyclo(AFC[βAla(3S-(1-naphthyl))]AIPPA[βAla(3S-(1-naphthyl))]CAPD); disulfide 3-11)
- IC50 [2]: > 50 µM
- IC50 [3]: > 50 µM
- IC50 [4]: > 50 µM
- IC50 [1]: > 50 µM

Compound: CC[C@H](C)[C@@H]1NC(=O)[C@H](CC(=O)O)NC(=O)[C@H](CC(=O)O)NC(=O)[C@@H]2CCCN2C(=O)[C@H]2CCCN2C(=O)[C@H](CC(=O)O)NC(=O)[C@H](Cc2ccc(O)cc2)NC(=O)[C@H]([C@@H](C)CC)NC(=O)[C@H](CO)NC(=O)[C@H](CCCCN)NC1=O [Peptide 6, Cyclo(SIYDpPDDIK)]
- histopathology of paws ([5]; 0.5 mg/kg): clear joint space with normal cartilage interface
- anti-CII antibodies in sera ([5]; 0.5 and 1 mg/kg i.v.): dose-dependent reduction
- acute clinical signs of illness / direct toxicity ([5]; DBA/1 mice, during dosing): minimal, if any, direct toxicity
- IC50 [6]: 0.0094 ± 0.0003 µM

Compound: C[C@@H]1NC(=O)[C@@H]2CSSC[C@H](NC(=O)[C@H](CC(=O)O)NC(=O)[C@H](CC(=O)O)NC(=O)CNC(=O)[C@H](CC(=O)O)NC(=O)[C@H](Cc3ccc(O)cc3)NC1=O)C(=O)N[C@@H](CCCCN)C(=O)N[C@@H](CO)C(=O)N[C@@H](C)C(=O)NCCc1cccc3c1Oc1c(cccc1-3)CCC(=O)N[C@@H](CO)C(=O)N2 [SFTI-DBF] (cyclo(AYDGDDCKSA[X1]SC); disulfide 7-13)
- IC50 [7]: 0.003 µM
- IC50 [8]: 0.00061 µM

Compound: CC[C@H](C)[C@@H]1NC(=O)[C@H](CO)NC(=O)[C@H](CC(=O)O)NC(=O)[C@H](Cc2ccccc2)NC(=O)[C@@H]2CSSC[C@H](NC(=O)[C@H](Cc3ccccc3)NC(=O)[C@H](CC(=O)O)NC1=O)C(=O)N[C@H](c1cccc3ccccc13)CC(=O)N[C@@H](CCCNC(=N)N)C(=O)N[C@@H](CC(=O)O)C(=O)N[C@@H](CCCNC(=N)N)C(=O)N[C@H](c1cccc3ccccc13)CC(=O)N2 [SFTI-G1, Cyclo(C(S-X)RDR(S-X)CFDSIDF)] (cyclo(C[βAla(3S-(1-naphthyl))]RDR[βAla(3S-(1-naphthyl))]CFDSIDF); disulfide 1-7)
- IC50 [2]: 4.16 ± 0.179 µM
- IC50 [1]: > 50 µM

Compound: N=C(N)NCCC[C@@H]1NC(=O)[C@H]2CCCN2C(=O)[C@@H]2CCCN2C(=O)[C@H](CCCNC(=N)N)NC(=O)C[C@H](c2cccc3ccccc23)NC(=O)[C@@H]2CSSC[C@H](NC(=O)C[C@H](c3cccc4ccccc34)NC1=O)C(=O)N[C@@H](Cc1ccccc1)C(=O)N[C@@H](Cc1ccccc1)C(=O)N2 [SFTI-G2, Cyclo(C(R-X)RPpR(R-X)CFF)] (cyclo(C[βAla(3R-(1-naphthyl))]RP[dP]R[βAla(3R-(1-naphthyl))]CFF); disulfide 1-8)
- IC50 [2]: 5.23 ± 1.38 µM
- IC50 [1]: > 50 µM

Compound: N=C(N)NCCC[C@@H]1NC(=O)[C@@H]2CCCN2C(=O)[C@@H]2CCCN2C(=O)[C@H](CCCNC(=N)N)NC(=O)C[C@H](c2cccc3ccccc23)NC(=O)[C@@H]2CSSC[C@H](NC(=O)C[C@H](c3cccc4ccccc34)NC1=O)C(=O)N[C@@H](Cc1ccccc1)C(=O)N2 [SFTI-G3, Cyclo(C(R-X)RPPR(R-X)CF)] (cyclo(C[βAla(3R-(1-naphthyl))]RPPR[βAla(3R-(1-naphthyl))]CF); disulfide 1-8)
- IC50 [2]: 3.65 ± 0.41 µM
- IC50 [1]: > 50 µM

Compound: CC[C@H](C)[C@@H]1NC(=O)[C@H](CO)NC(=O)[C@H](CC(=O)O)NC(=O)[C@H](Cc2ccccc2)NC(=O)[C@@H]2CSSC[C@H](NC(=O)[C@H](Cc3ccccc3)NC(=O)[C@H](CC(=O)O)NC(=O)[C@@H]3CCCN3C(=O)[C@@H]3CCCN3C1=O)C(=O)N[C@H](c1cccc3ccccc13)CC(=O)N[C@@H](CCCNC(=N)N)C(=O)N1CCC[C@H]1C(=O)NCC(=O)N[C@@H](CCCNC(=N)N)C(=O)N[C@H](c1cccc3ccccc13)CC(=O)N2 [SFTI-G4] (cyclo(C[βAla(3S-(1-naphthyl))]RPGR[βAla(3S-(1-naphthyl))]CFDSIPPDF); disulfide 1-8)
- IC50 [2]: 17.2 ± 1.03 µM
- IC50 [1]: > 30 µM

Compound: CC[C@H](C)[C@@H]1NC(=O)[C@H](CCCNC(=N)N)NC(=O)C[C@H](c2cccc3ccccc23)NC(=O)[C@@H]2CSSC[C@H](NC(=O)C[C@H](c3cccc4ccccc34)NC(=O)[C@H](CCCNC(=N)N)NC(=O)[C@@H]3CCCN3C(=O)[C@@H]3CCCN3C1=O)C(=O)N[C@@H](Cc1ccccc1)C(=O)N1CCC[C@H]1C(=O)N[C@@H](CC(=O)O)C(=O)N[C@@H](CC(=O)O)C(=O)N[C@@H](Cc1ccccc1)C(=O)N2 [SFTI-G6, Cyclo(C(R-X)RIPPR(R-X)CFPDDF)]
- change of antiproliferative activity on altering Anapa chirality (S to R) ([2]; SFTI-G6 versus SFTI-G5): tenfold decrease
- IC50 [2]: 2.94 ± 1.06 µM
- IC50 [1]: > 50 µM

Compound: C[C@@H]1NC(=O)[C@@H]2CSSC[C@H](NC(=O)[C@H](CC(=O)O)NC(=O)[C@H](CC(=O)O)NC(=O)CNC(=O)[C@H](CC(=O)O)NC(=O)[C@H](Cc3ccc(O)cc3)NC1=O)C(=O)N[C@@H](CCCCN)C(=O)N[C@@H](CO)C(=O)N[C@@H](C)C(=O)N1CCC[C@H]1C(=O)N1CCC[C@H]1C(=O)N[C@@H](CO)C(=O)N2 [SFTI-a1] (cyclo(APPSCAYDGDDCKS); disulfide 5-12)
- IC50 [9]: 0.022 µM
- IC50 [10]: 0.0388 ± 0.0102 µM

Compound: C[C@@H]1NC(=O)[C@H](CCCCN)NC(=O)[C@@H]2CSSC[C@H](NC(=O)[C@H](CO)NC(=O)[C@@H]3CCCN3C(=O)[C@@H]3CCCN3C(=O)[C@H](C)NC(=O)[C@H](CO)NC1=O)C(=O)N[C@@H](Cc1ccc(O)cc1)C(=O)N[C@@H](CC(=O)O)C(=O)NCC(=O)N[C@@H](CC(=O)O)C(=O)N[C@@H](CC(=O)O)C(=O)N2 [SFTI-a] (cyclo(APPSCYDGDDCKAS); disulfide 5-11)
- IC50 [11]: 0.043 ± 0.025 µM

Compound: Cyclo(CTKSIPPICFPDGR) (cyclic) [SFTI-wt (control)]
- IC50 [11]: > 50 µM
- IC50 [10]: > 50 µM

Compound: pertuzumab: antibody known to bind HER2 ECD domain II and inhibit dimerization of EGFRs [reference compound]
- tumor growth [12]: significantly reduced tumor growth progression
